US20250270170A1, “2,3-DIMETHOXY-5-METHYL-1,4-BENZOQUINONE ALKYL ALCOHOL DERIVATIVE AND USE THEREOF” (BEIJING ANJIANXI BIO-MEDICAL TECHNOLOGY CO., LTD., priority 2021, published 2025)
Marks after values point to notes of the source that are not given here.

Experiments:
[1] = test system: human gastric cancer NCI-N87 transplanted tumor; assay: Example 3: tumor growth in NCI-N87 transplanted tumor model in nude mice; type: in vivo, BALB/c nude mice
Method: Female BALB/c nude mice (age: 6 to 7 weeks) were purchased from Beijing Vital River Laboratory Animal Technology Co., Ltd. The mice were raised in an SPF animal room at a temperature of 20 to 25° C., a relative humidity of 40% to 70%, and a cycle of 12 hours of light and 12 hours of dark. The animals had free access to water and food. After about 1 week of normal feeding, mice with good physical condition after the veterinary examination were selected for this assay. Before grouping, a marker was used to mark on the base of the animals' tail. After grouping, each animal was marked with an ear cutout.
The solution was prepared before each administration. An appropriate amount of DDP was weighed and put into a glass bottle. Then, an appropriate volume of physiological saline was added to the bottle, and vortexed (may be heated in a water bath to 50 to 60° C.) to completely dissolve the drug.
An appropriate amount of the compound was weighed and added to an appropriate volume of dimethylacetamide (DMA). The mixture was vortexed to prepare a stock solution (8 mg·mL^−1). The stock solution was prepared once a week, divided into packages and then stored in a 2 to 8° C. refrigerator. One tube was taken out before each administration, and an appropriate volume of 30% Solutol and PEG400 was added while vortexing. The mixture was vortexed and mixed well. Then, an appropriate volume of physiological saline was added, and mixed well to give an administration formulation with a concentration of 0.4 mg·mL^−1, in which the volume ratio of DMA: 30% Solutol: PEG 400: physiological saline was 5:20:20:55.
Human gastric cancer cells NCI-N87 were obtained from the Cell Bank of the Type Culture Collection Committee of Chinese Academy of Sciences (cryopreserved in liquid nitrogen in the laboratory).
NCI-N87 cells were routinely cultured in a RPMI-1640 culture medium containing 10% fetal bovine serum under culture conditions of 37° C. and 5% CO2. The cells were digested with 0.25% trypsin, and passaged according to the cell growth conditions with a passaging ratio of 1:3 to 1:5.
The NCI-N87 cells in the logarithmic growth phase were collected, counted and resuspended in a serum-free RPMI-1640 medium, and the cell concentration was adjusted to 5×10^7 cells/mL. The cells were pipetted with a pipette to disperse them evenly, and the cells were put into a 50-mL centrifuge tube, which was placed in an ice box. A 1-mL syringe was used to draw the cell suspension, which was injected subcutaneously into the axilla of the front right limb of a nude mouse. Each animal was inoculated with 100 μL (5×10^6 cells/mouse) to establish an NCI-N87 transplanted tumor model in nude mice. After the inoculation, the animal status and tumor growth were regularly observed, and the tumor diameter was measured using an electronic vernier caliper. The data were input into an Excel spreadsheet to calculate the tumor volume. When the tumor volume reached 100 to 300 mm^3, 72 animals in good health and with similar tumor volumes were selected and divided into 9 groups (n=8) using randomized block method. The day of grouping was regarded as the first day of the assay (D1). After the start of the assay, the tumor diameter was measured twice a week, the tumor volume was calculated, and the animal body weight was also weighed and recorded.
The calculation formula of tumor volume (TV) is as follows: […]
wherein l represents the long diameter of a tumor (mm); and w represents the short diameter of a tumor (mm).
On the last day of the assay (D44), the animals were anesthetized using CO2 inhalation 1 hour after administration (R01) and sacrificed, and tumor tissues were collected, weighed, and photographed.
The calculation formula of tumor growth inhibition rate TGI (%) is: […]

[2] = test system: human colorectal cancer HT29 transplanted tumor; assay: Example 10: tumor growth in HT-29 transplanted tumor model; type: in vivo, nude mice; settings: for Mean tumor volume ± SE / tumor growth inhibition rate: HT-29 model, DDP 5 mg/kg i.p. QW × 3, R01 18 mg/kg i.g. BID × 28
Method: The human colorectal cancer cell lines HT-29 were obtained from the Cell Bank of the Type Culture Collection Committee of Chinese Academy of Sciences (CAS, cryopreserved in liquid nitrogen in this assay).
HT-29 cells were routinely cultured in a McCoy […] containing 10% fetal bovine serum under culture conditions of 37° C. and 5% CO2. The cells were digested with 0.25% trypsin, and passaged according to the cell growth conditions with a passaging ratio of 1:3 to 1:4.
On D1 of the assay, the HT-29 cells in the logarithmic growth phase were collected, counted and resuspended in serum-free McCoy, and the cell concentration was adjusted to 4×10^7 cells/mL. The cells were pipetted with a pipette to disperse them evenly, and the cells were put into a 50-mL centrifuge tube, which was placed in an ice box. A 1-mL syringe was used to draw the cell suspension, which was injected subcutaneously into the axilla of the front right limb of a nude mouse. Each animal was inoculated with 100 μL (4×10^6 cells/mouse) to establish a HT-29 transplanted tumor model in nude mice. After the inoculation, the animal status and tumor growth were regularly observed. On D12, the tumor diameter was measured using an electronic vernier caliper. The data were input into an Excel spreadsheet to calculate the tumor volume. Tumor-bearing mice in good health and with similar tumor volumes (103 to 179 mm^3) were selected and divided into groups using randomized block method. After the start of the assay, the tumor diameter was measured regularly, the tumor volume was calculated, and the animal body weight was also weighed and recorded.

COC1=C(OC)C(=O)C(CCCCCCCCCCOC(=O)Cc2c(C)n(C(=O)c3ccc(Cl)cc3)c3ccc(OC)cc23)=C(C)C1=O [compound of formula (I)]
Mean tumor volume ([1]; D13, 2 mg/kg i.g. BID×28): 141 ± 9 mm^3 | Mean tumor volume ([1]; D13, 6 mg/kg i.g. BID×28): 140 ± 8 mm^3 | Mean tumor volume ([1]; D13, 18 mg/kg i.g. BID×28): 134 ± 8 mm^3 | Mean tumor volume ([1]; D16, 2 mg/kg i.g. BID×28): 180 ± 17 mm^3 | tumor growth inhibition rate ([1]; D16, 2 mg/kg i.g. BID×28): (52%) | Mean tumor volume ([1]; D16, 6 mg/kg i.g. BID×28): 183 ± 10 mm^3 | tumor growth inhibition rate ([1]; D16, 6 mg/kg i.g. BID×28): (48%) | Mean tumor volume ([1]; D16, 18 mg/kg i.g. BID×28): 175 ± 19 mm^3 | tumor growth inhibition rate ([1]; D16, 18 mg/kg i.g. BID×28): (50%) | Mean tumor volume ([1]; D20, 2 mg/kg i.g. BID×28): 218 ± 17** mm^3 | tumor growth inhibition rate ([1]; D20, 2 mg/kg i.g. BID×28): (53%) | Mean tumor volume ([1]; D20, 6 mg/kg i.g. BID×28): 220 ± 11** mm^3 | tumor growth inhibition rate ([1]; D20, 6 mg/kg i.g. BID×28): (51%) | Mean tumor volume ([1]; D20, 18 mg/kg i.g. BID×28): 209 ± 27* mm^3 | tumor growth inhibition rate ([1]; D20, 18 mg/kg i.g. BID×28): (54%) | Mean tumor volume ([1]; D23, 2 mg/kg i.g. BID×28): 253 ± 24** mm^3 | tumor growth inhibition rate ([1]; D23, 2 mg/kg i.g. BID×28): (53%) | Mean tumor volume ([1]; D23, 6 mg/kg i.g. BID×28): 255 ± 16** mm^3 | tumor growth inhibition rate ([1]; D23, 6 mg/kg i.g. BID×28): (52%) | Mean tumor volume ([1]; D23, 18 mg/kg i.g. BID×28): 245 ± 36* mm^3 | tumor growth inhibition rate ([1]; D23, 18 mg/kg i.g. BID×28): (54%) | Mean tumor volume ([1]; D27, 2 mg/kg i.g. BID×28): 294 ± 30** mm^3 | tumor growth inhibition rate ([1]; D27, 2 mg/kg i.g. BID×28): (60%) | Mean tumor volume ([1]; D27, 6 mg/kg i.g. BID×28): 302 ± 24** mm^3 | tumor growth inhibition rate ([1]; D27, 6 mg/kg i.g. BID×28): (58%) | Mean tumor volume ([1]; D27, 18 mg/kg i.g. BID×28): 297 ± 48** mm^3 | tumor growth inhibition rate ([1]; D27, 18 mg/kg i.g. BID×28): (58%) | Mean tumor volume ([1]; D30, 2 mg/kg i.g. BID×28): 332 ± 32** mm^3 | tumor growth inhibition rate ([1]; D30, 2 mg/kg i.g. BID×28): (65%) | Mean tumor volume ([1]; D30, 6 mg/kg i.g. BID×28): 348 ± 31** mm^3 | tumor growth inhibition rate ([1]; D30, 6 mg/kg i.g. BID×28): (62%) | Mean tumor volume ([1]; D30, 18 mg/kg i.g. BID×28): 354 ± 64** mm^3 | tumor growth inhibition rate ([1]; D30, 18 mg/kg i.g. BID×28): (60%) | Mean tumor volume ([1]; D34, 2 mg/kg i.g. BID×28): 370 ± 41** mm^3 | tumor growth inhibition rate ([1]; D34, 2 mg/kg i.g. BID×28): (70%) | Mean tumor volume ([1]; D34, 6 mg/kg i.g. BID×28): 412 ± 37** mm^3 | tumor growth inhibition rate ([1]; D34, 6 mg/kg i.g. BID×28): (64%) | Mean tumor volume ([1]; D34, 18 mg/kg i.g. BID×28): 444 ± 79** mm^3 | tumor growth inhibition rate ([1]; D34, 18 mg/kg i.g. BID×28): (59%) | Mean tumor volume ([1]; D37, 2 mg/kg i.g. BID×28): 450 ± 46** mm^3 | tumor growth inhibition rate ([1]; D37, 2 mg/kg i.g. BID×28): (68%) | Mean tumor volume ([1]; D37, 6 mg/kg i.g. BID×28): 508 ± 38** mm^3 | tumor growth inhibition rate ([1]; D37, 6 mg/kg i.g. BID×28): (62%) | Mean tumor volume ([1]; D37, 18 mg/kg i.g. BID×28): 492 ± 87** mm^3 | tumor growth inhibition rate ([1]; D37, 18 mg/kg i.g. BID×28): (64%) | Mean tumor volume ([1]; D44, 2 mg/kg i.g. BID×28): 536 ± 52** mm^3 | tumor growth inhibition rate ([1]; D44, 2 mg/kg i.g. BID×28): (68%) | Mean tumor volume ([1]; D44, 6 mg/kg i.g. BID×28): 595 ± 57** mm^3 | tumor growth inhibition rate ([1]; D44, 6 mg/kg i.g. BID×28): (63%) | Mean tumor volume ([1]; D44, 18 mg/kg i.g. BID×28): 590 ± 113** mm^3 | tumor growth inhibition rate ([1]; D44, 18 mg/kg i.g. BID×28): (63%) | anti-tumor effect compared with cisplatin ([1]; NCI-N87 transplanted tumor model, summary of Table 5): better anti-tumor effect | Mean tumor volume ± SE ([2]; D 12 (grouping)): 134 ± 9 mm^3 | Mean tumor volume ± SE ([2]; D 15): 178 ± 7 mm^3 | tumor growth inhibition rate ([2]; D 15): (40%) | Mean tumor volume ± SE ([2]; D 19): 280 ± 9** mm^3 | tumor growth inhibition rate ([2]; D 19): (42%) | Mean tumor volume ± SE ([2]; D 22): 393 ± 19** mm^3 | tumor growth inhibition rate ([2]; D 22): (34%) | Mean tumor volume ± SE ([2]; D 26): 532 ± 31** mm^3 | tumor growth inhibition rate ([2]; D 26): (31%) | Mean tumor volume ± SE ([2]; D 29): 631 ± 40** mm^3 | tumor growth inhibition rate ([2]; D 29): (38%) | Mean tumor volume ± SE ([2]; D 33): 832 ± 59** mm^3 | tumor growth inhibition rate ([2]; D 33): (36%) | Mean tumor volume ± SE ([2]; D 36): 903 ± 73** mm^3 | tumor growth inhibition rate ([2]; D 36): (37%) | Mean tumor volume ± SE ([2]; D 40): 1070 ± 94** mm^3 | tumor growth inhibition rate ([2]; D 40): (33%) | anti-tumor effect in combination with cisplatin (summary) ([2]; HT-29 transplanted tumor model in nude mice): synergistic anti-tumor effect
